# Where two headings read alike, the source gives them in different places. Where a SMILES comes first, the peptide text is derived from it. Where no end group is shown, it is not given here.
# What was measured:
# E. coli ATCC 25922 = type: cell-based, Escherichia coli
# Text: (§1) From the novel candidate AMP sequences predicted by AMPlify, 11 were selected for validation in vitro. Minimum inhibitory concentrations (MIC) and minimum bactericidal concentrations (MBC) were obtained using the AST procedures outlined by the Clinical and Laboratory Standards Institute (CLSI), with the recommended adaptations for testing cationic AMPs described by Hancock.
# A panel of two Gram-positive and four Gram-negative bacterial isolates was generated to test predicted AMPs. Staphylococcus aureus ATCC 6538P, Streptococcus pyogenes (hospital isolate, unknown strain), Pseudomonas aeruginosa ATCC 10148, and Escherichia coli ATCC 9723H were obtained and tested at the University of Victoria. Additionally, a multi-drug resistant (MDR), carbapenemase-producing New-Delhi metallobetalactamase (CPO-NDM) clinical isolate of Escherichia coli was obtained from the BC Centre for Disease Control. […] The latter two strains were tested at the BC Centre for Disease Control using identical AST procedures.
# (§2) Bacteria were streaked onto nonselective nutrient agar from frozen stocks and incubated for 18–24 h at 37 °C. To prepare a standardized bacterial inoculum, isolated colonies were suspended in Mueller-Hinton Broth (MHB) and adjusted to an optical density of 0.08–0.1 at 600 nm, equivalent to a 0.5 McFarland standard and representing approximately 1–2 × 10^8 CFU/mL (CFU: colony forming units). The inoculum was diluted 1/250 in MHB to the target concentration of (5 ± 3) × 10^5 CFU/mL. Total viability counts from the final inoculum were examined to confirm the target bacterial density was obtained.
# (§3) Selected candidate AMPs were purchased from Genscript (Piscataway, NJ), where they were synthesized using the vendor’s Flexpeptide platform. Lyophilized peptides were suspended in sterile ultrapure water or filter-sterilized 0.2% acetic acid as recommended by solubility testing reports provided with the GenScript synthesis. AMPs were diluted from 2560 to 5 μg/mL by a two-fold serial dilution in a 96-well polypropylene microtitre plate before 100 μl of the standardized bacterial inoculum of (5 ± 3) × 10^5 CFU/mL was added to each well. This generated a final test range of 256 to 0.5 μg/mL. MIC values were reported as the peptide concentration that produced no visible bacterial growth after a 16–24 h incubation at 37 °C.
# (§4) For each AMP dilution series, the contents of the MIC well and the two adjacent wells containing two- and four-fold MIC were plated onto nonselective nutrient agar and incubated for 24 h at 37 °C. The concentration which killed 99.9% of the initial inoculum was determined to be the MBC.
# [1] = system: MDR E. coli (CPO-NDM) clinical isolate; type: cell-based, Escherichia coli
# Text: as §1
# (§5) A panel of two Gram-positive and four Gram-negative bacterial isolates was generated to test predicted AMPs. Staphylococcus aureus ATCC 6538P, Streptococcus pyogenes (hospital isolate, unknown strain), Pseudomonas aeruginosa ATCC 10148, and Escherichia coli ATCC 9723H were obtained and tested at the University of Victoria. Additionally, a multi-drug resistant (MDR), carbapenemase-producing New-Delhi metallobetalactamase (CPO-NDM) clinical isolate of Escherichia coli was obtained from the BC Centre for Disease Control. E. coli ATCC […] was purchased from Cedarlane Laboratories (Burlington, Ontario, Canada) for comparison of AMP activity between a wild type, drug-susceptible control and the MDR strain. The latter two strains were tested at the BC Centre for Disease Control using identical AST procedures.
# as §2, §3, §4
# [2] = system: all E. coli strains tested; type: cell-based, Escherichia coli
# Text: as §1, §5, §2, §3, §4
# [3] = system: Streptococcus pyogenes (unknown strain; hospital isolate); type: cell-based
# Text: as §1, §5, §2, §3, §4
# [4] = system: Escherichia coli ATCC 9723H; type: cell-based
# Text: as §1, §5, §2, §3, §4
# [5] = system: at least one of the ten bacterial species tested: Bacillus subtilis, Micrococcus luteus, Staphyloccus aureus, Staphylococcus epidermis, Escherichia coli …; design: method as in Won and co-workers [2]; key: ✓: Whether the peptide shows antimicrobial activity against at least one of the ten bacterial species tested in the work; details: activity against at least one of ten bacterial species; blank cell = not active; ref Won and co-workers [2]; cited from earlier work
# [6] = system: Staphylococcus aureus ATCC 6538P; type: cell-based
# Text: as §1, §5, §2, §3, §4
# [7] = range over all E. coli strains tested (ATCC 9723H, ATCC 25922, MDR CPO-NDM)
Molecule,MBC (E. coli ATCC 25922; ATCC 25922) [µg/mL],"MBC (E. coli ATCC 25922; ATCC 25922, 24 h) [µM]",MBC [1] [µg/mL],MBC ([1]; 24 h) [µM],MBC ([2]; all strains tested) [µM],MIC ([2]; all strains tested) [µM],MBC [3] [µg/mL],MIC [3] [µg/mL],MBC ([3]; 24 h) [µM],MBC ([4]; ATCC 9723) [µg/mL],"MBC ([4]; ATCC 9723, 24 h) [µM]","MBC (E. coli ATCC 25922; E. coli ATCC 25922, as Table 3, in µg/mL, range over three independent experiments, NI = no inhibition observed) [µg/mL]","MBC (E. coli ATCC 25922; E. coli ATCC 25922, plated on agar 24 h at 37 °C, kills 99.9% of inoculum, range over three independent experiments, NI = no inhibition observed) [µM]","MBC [2, 7] [µM]","MIC [2, 7] [µM]",Active? [5],MIC [1] [µg/mL],MBC ([6]; ATCC 6538) [µg/mL],"MBC ([6]; ATCC 6538, 24 h) [µM]",MIC ([6]; ATCC 6538) [µM]
CC[C@H](C)[C@H](NC(=O)[C@H](CCCCN)NC(=O)[C@@H](NC(=O)[C@H](C)NC(=O)[C@H](Cc1ccccc1)NC(=O)[C@H](CC(=O)O)NC(=O)[C@H](CCCCN)NC(=O)CNC(=O)[C@@H](NC(=O)[C@@H](NC(=O)[C@H](CCCCN)NC(=O)[C@@H](NC(=O)[C@@H](NC(=O)[C@H](CC(=O)O)NC(=O)[C@H](CC(C)C)NC(=O)[C@H](CC(C)C)NC(=O)CN)[C@@H](C)CC)[C@@H](C)CC)[C@@H](C)O)[C@@H](C)O)C(C)C)C(=O)N[C@@H](CC(C)C)C(=O)N[C@@H](CC(=O)O)C(=O)N[C@@H](CC(N)=O)C(=O)N[C@@H](CC(C)C)C(=O)N[C@@H](CCCCN)C(=O)N[C@@H](CS)C(=O)N[C@@H](CCCCN)C(=O)N[C@@H](CC(C)C)C(=O)N[C@@H](C)C(=O)NCC(=O)NCC(=O)N[C@@H](CS)C(=O)N1CCC[C@H]1C(=O)N1CCC[C@H]1C(=O)O [RaCa-1] (H-GLLDIIKTTGKDFAVKILDNLKCKLAGGCPP-OH; N-terminus and C-terminus assumed),32 to 128,10 to 39,64 to 128,20 to 39,10 to 79,10 to 39,≥ 256,256,≥ 79,128 to 256,39 to 79,–,–,–,–,–,–,–,–,–
"CC[C@H](C)[C@H](NC(=O)[C@H](CCCCN)NC(=O)[C@H](CCC(=O)O)NC(=O)[C@H](CCCCN)NC(=O)[C@H](CO)NC(=O)[C@H](CCCCN)NC(=O)[C@H](CCCNC(=N)N)NC(=O)[C@H](Cc1ccccc1)NC(=O)[C@H](Cc1ccccc1)NC(=O)[C@H](CC(=O)O)NC(=O)CNC(=O)[C@H](CC(C)C)NC(=O)[C@@H](N)CC(C)C)C(=O)NCC(=O)N[C@@H](CCCCN)C(=O)N[C@@H](CCC(=O)O)C(=O)N[C@@H](Cc1ccccc1)C(=O)N[C@@H](CCCCN)C(=O)N[C@@H](CCCNC(=N)N)C(=O)N[C@H](C(=O)N[C@H](C(=O)N[C@@H](CCC(N)=O)C(=O)N[C@@H](CCCNC(=N)N)C(=O)N[C@H](C(=O)N[C@@H](CCCCN)C(=O)N[C@@H](CC(=O)O)C(=O)N[C@@H](Cc1ccccc1)C(=O)N[C@@H](CC(C)C)C(=O)N[C@@H](CCCNC(=N)N)C(=O)N[C@@H](CC(N)=O)C(=O)N[C@@H](CC(C)C)C(=O)N[C@H](C(=O)N1CCC[C@H]1C(=O)N[C@@H](CCCNC(=N)N)C(=O)N[C@H](C(=O)N[C@@H](CCC(=O)O)C(=O)N[C@@H](CO)C(=O)O)[C@@H](C)O)C(C)C)[C@@H](C)CC)C(C)C)[C@@H](C)CC [LL37, reference compound]",–,–,–,–,–,–,–,–,–,–,–,8 to 16,2 to 4,2 to 7,2 to 4,–,–,–,–,–
Gaegurin 5 [GGN5],–,–,–,–,–,–,–,–,–,–,–,–,–,–,–,✓,–,–,–,–
CC[C@H](C)[C@H](NC(=O)[C@H](CO)NC(=O)[C@H](CCCCN)NC(=O)CNC(=O)[C@@H](NC(=O)[C@@H](NC(=O)[C@H](CCCCN)NC(=O)[C@@H](NC(=O)[C@@H](NC(=O)[C@H](CCC(=O)O)NC(=O)[C@H](Cc1c[nH]c2ccccc12)NC(=O)[C@H](CC(C)C)NC(=O)CN)[C@@H](C)O)[C@@H](C)CC)[C@@H](C)O)[C@@H](C)O)C(=O)N[C@@H](C)C(=O)N[C@@H](CC(C)C)C(=O)N[C@@H](CC(N)=O)C(=O)N[C@@H](CC(C)C)C(=O)N[C@@H](CC(C)C)C(=O)N[C@@H](CC(=O)O)C(=O)N[C@@H](CCCCN)C(=O)N[C@H](C(=O)N[C@@H](CCCCN)C(=O)N[C@@H](CS)C(=O)N[C@@H](CCCCN)C(=O)N[C@H](C(=O)N[C@@H](C)C(=O)NCC(=O)NCC(=O)N[C@@H](CS)C(=O)N1CCC[C@H]1C(=O)N1CCC[C@H]1C(=O)O)[C@@H](C)CC)[C@@H](C)CC [RaCa-3] (H-GLWETIKTTGKSIALNLLDKIKCKIAGGCPP-OH; N-terminus and C-terminus assumed),8 to 16,2 to 5,16 to 64,5 to 20,2 to 20,2 to 10,–,–,–,16 to 32,5 to 10,–,–,–,–,–,16 to 32,–,–,–
CC[C@H](C)[C@H](NC(=O)[C@@H](NC(=O)[C@@H]1CCCN1C(=O)[C@H](Cc1ccccc1)NC(=O)[C@@H](N)Cc1ccccc1)[C@@H](C)CC)C(=O)N[C@@H](C)C(=O)N[C@@H](CCCNC(=N)N)C(=O)N[C@@H](CC(C)C)C(=O)N[C@@H](C)C(=O)N[C@@H](C)C(=O)N[C@@H](CCCCN)C(=O)N[C@H](C(=O)N[C@H](C(=O)N1CCC[C@H]1C(=O)N[C@@H](CO)C(=O)N[C@@H](CC(C)C)C(=O)N[C@H](C(=O)N[C@@H](CS)C(=O)N[C@@H](C)C(=O)N[C@H](C(=O)N[C@H](C(=O)N[C@@H](CCCCN)C(=O)N[C@@H](CCCCN)C(=O)N[C@@H](CS)C(=O)O)[C@@H](C)O)C(C)C)C(C)C)[C@@H](C)CC)C(C)C [RaCa-2] (H-FFPIIARLAAKVIPSLVCAVTKKC-OH; N-terminus and C-terminus assumed),4 to 16,2 to 6,4 to 16,2 to 6,–,2 to 6,64 to 128,–,25 to 49,8 to 16,3 to 6,–,–,–,–,–,4 to 16,2 to 4,1 to 2,–
FFPRVLPLANKFLPTIYCALPKSVGN [RaCa-7],16 to 128,6 to 44,16 to 128,6 to 44,6 to 88,6 to 44,–,–,–,32 to 256,11 to 88,–,–,–,–,–,–,–,–,≥ 88

# Reference: PMC8788131, “AMPlify: attentive deep learning model for discovery of novel antimicrobial peptides effective against WHO priority pathogens” (BMC Genomics, 2022)
